Test results reported in patent publication US10905757B2, “Cross-reactive T cell epitopes of HIV, SIV, and FIV for vaccines in humans and cats” (priority 2012, dated 2021).
“Also recorded” adds a separate entry of the source. Ends that are not written are not given here.

Legend:
[1] = system: CD8+ T cells from HIV+ subjects; assay: Intracellular cytotoxin staining (ICS: perforin, GrzA, GrzB, CD107a), CD8+ T cells from HIV+ subjects; format: cell-based, human; parameters: key to CD8^+ T-cell cytotoxins (8C): positive (+); negative (−) response; inhibitory (↓); not done (n); conditions: for HIV+ subjects whose CD8+ T cells responded with one or more cytotoxins: five HIV+ subjects, individual 13-15mer peptides; for CD8^+ T-cell cytotoxins (8C): HIV^+ subjects compared to HIV^− control group
Description: (§1) Briefly, 1×10^6PBMCs (freshly isolated) are stimulated with 20 μg of peptides for 6 hours in a total volume of 200 μL in a 96-well plate in presence of Golgi transport inhibitor (37° C., 5% CO2). The cells are processed as previously described (Horton et al. (2007)). Cells were stained with the LIVE/DEAD® fixable yellow dye (Invitrogen, Eugene, Oreg.). The monoclonal antibodies fluorochome-conjugated to human cytokines used are: APC-H7 to CD3 (clone SK7); BD Horizon V450 to CD4 (clone RPA-T4); Qdot to CD8 (clone 3B5); PE-cy7 to IFN-γ (clone 4S.B3); APC to IL-2 (clone MQ1-17H12) PerCP to perforin (clone B-D48); Alexa F1.700 to granzyme-B (clone GB11) and PE to granzyme-A (clone CB9). The flow cytometry data is collected using BD LSRII and analyzed with the FACS DIVA software.
(§2) The ICS analysis (Horton et al. (2007)) involved stimulating 0.5-1.0×10^6 freshly isolated PBMC for 6 h with the same peptide stimulant and culture conditions as the proliferation analysis in the presence of 1 μg/mL of Golgi transport inhibitor and monensin followed by labeling with LIVE/DEAD fixable yellow dye and then treatment with anti-CD16/CD32 antibody and T-cell phenotypic antibodies. The cells were subsequently fixed and permeabilized with Cytofix/Cytoperm solution (BD Biosciences) before reaction with anti-cytotoxin antibodies. The antibodies consisted of anti-CD3 APC-H7, anti-CD4 BD Horizon V450, and anti-CD8 FITC followed by anti-GrzB Alexa 700 and anti-GrzA PE (all from BD Biosciences), and anti-perforin PerCP (Abcam, Boston, Mass.).
(§3) In both analyses, 1.0-2.0×10^4 cells were fixed in phosphate-buffered saline (PBS) containing 2% paraformaldehyde and analyzed on BD LSRII using […] Software (BD Biosciences), with a positive threshold of 3% CFSE^low for CFSE-proliferation and 1% T cells expressing cytotoxin for ICS. The final value for each subject was derived after subtraction of the subject's medium control and the average value of peptide-stimulated cells from uninfected control subjects.
(§4) Flow cytometry (FACS) for measuring CFSE-proliferation and intracellular cytokine staining (ICS). Carboxyfluorescein diacetate succinimide ester (CFSE)-proliferation analysis was performed according to the manufacturer's protocol (Invitrogen) and processed as previously described (Lichterfeld et al. 2004) using the following modification: 2.5-5.0×10^5 CFSE-labeled PBMC stimulated for 4-5 days (37° C., 5% CO2) with 15-30 μg of peptides in culture media (AIM V medium, 25 μg/mL gentamycin, and 10% heat-inactivated fetal bovine serum). The ICS analysis was performed as previously described (Horton et al. 2007; Pattacini et al. 2012).
(§5) The antibodies used for the proliferation analysis consisted of anti-CD4 allophycocyanin (APC) anti-CD3 APC-H7, and anti-CD8 Pacific Blue, and those for ICS were anti-CD3 APC-H7, anti-CD4 BD Horizon V450, anti-CD8 FITC, anti-granzyme B (GrzB) Alexa 700, anti-granzyme A (GrzA) PE (BD Biosciences, Cat #555349, 560176, 558207, 560345, 555366, 560213, 558904), and anti-perforin PerCP (Abcam, Cat #ab86319). Both analyses were performed with BD LSRII and […]™ Software (BD Biosciences), using a positive threshold of >1% CFSE^low for CFSE-proliferation except for ICS studies with threshold of >0.1% T cells expressing cytotoxin. The final value for each subject was derived after subtracting the result of each HIV^+ subject with the media control followed by subtraction with the average response of the media-control subtracted HIV^− subjects.

[2] = system: CD4+ T cells from HIV+ subjects; assay: Intracellular cytotoxin staining (ICS), CD4+ T cells from HIV+ subjects; format: cell-based, human; parameters: key to CD4^+ T-cell cytotoxins (4C): positive (+); negative (−) response; inhibitory (↓); not done (n); conditions: for cytotoxin expression in CD4+ T cells (in words): ST/ART− subjects; for CD4^+ T-cell cytotoxins (4C): HIV^+ subjects compared to HIV^− control group
Description: as §1, §2, §3, §4, §5

[3] = system: CD4+ or CD8+ T cells from HIV+ subjects; assay: Intracellular cytotoxin staining (ICS), CD4+ or CD8+ T cells from HIV+ responders; format: cell-based, human; conditions: for Cytotoxins: responders to Fp9 or Fp14 peptide pools; for cytotoxin and CD107a expression in CD4+ and CD8+ T cells (in words): p24 peptides
Description: Briefly, 1×10^6PBMCs (freshly isolated) are stimulated with 20 μg of peptides for 6 hours in a total volume of 200 μL in a 96-well plate in presence of Golgi transport inhibitor (37° C., 5% CO2). […] Cells were stained with the LIVE/DEAD® fixable yellow dye (Invitrogen, Eugene, Oreg.). […] The flow cytometry data is collected using BD LSRII and analyzed with the FACS DIVA software.
The cells were subsequently fixed and permeabilized with Cytofix/Cytoperm solution (BD Biosciences) before reaction with anti-cytotoxin antibodies. The antibodies consisted of anti-CD3 APC-H7, anti-CD4 BD Horizon V450, and anti-CD8 FITC followed by anti-GrzB Alexa 700 and anti-GrzA PE (all from BD Biosciences), and anti-perforin PerCP (Abcam, Boston, Mass.).
as §3
Flow cytometry (FACS) for measuring CFSE-proliferation and intracellular cytokine staining (ICS).
Both analyses were performed with BD LSRII and […]™ Software (BD Biosciences), using a positive threshold of >1% CFSE^low for CFSE-proliferation except for ICS studies with threshold of >0.1% T cells expressing cytotoxin.

[4] = system: T cells from HIV− subjects; assay: CFSE-proliferation, CD8+ / CD4+ T cells from HIV− control subjects; format: cell-based, human
Description: Flow cytometry (FACS) for carboxyfluoresein diacetate succinimide ester (CFSE)-proliferation and intracellular cytotoxin staining (ICS). The CFSE-proliferation analysis was performed on PBMC according to the manufacturer's protocol (Invitrogen, Carlsbad, Calif.) and processed as previously described (Lichterfeld et al. (2004)). Modifications consisted of using 2.0-5.0×10^5 CFSE-labeled cells stimulated for 5 days (37° C., 5% CO^2) with 30 μg/well of total peptides in a pool (15 μg/well for individual peptide, Table 10) or 5 μg/mL PHA in AIM V medium containing 25 μg/mL of gentamycin and 10% heat-inactivated human serum. Subsequently these cells were harvested and labeled with the LIVE/DEAD fixable yellow dye (Invitrogen) and then treated 5 min with anti-CD16/CD32 antibody (Biolegend, San Diego, Calif.) for blocking non-specific binding before phenotype-specific antibodies. The following antibodies were used for the CFSE-proliferation analysis: anti-CD4 APC, anti-CD3 APC-H7, and anti-CD8 Pacific Blue (BD Biosciences, San Jose, Calif.).
as §3, §4, §5

[5] = system: FIV infection of naïve cat PBMC; assay: In vitro FIV enhancing/inhibitory (E/I) assay in PBMC from naïve SPF cats (RT titer); format: cell-based; conditions: for effect on in vitro FIV infection: PBMC from naïve cats
Description: FIG. 35. FIV-enhancing versus inhibitory epitopes on peptides and MAPs used in pilot MAP Study. […] Abbreviation: MAP1 plus MAP2 mix (MAP1+2).
FIG. 36A and 36B. FIV/HIV-1 enhancing versus inhibitory epitopes. […] Four epitope peptides were tested in an in vivo efficacy study with prototype vaccine prime and MAP boosts against pathogenic FIV challenge (see MAP section).
To test the possibility that Fp4-3 peptide may be enhancing FIV infection, we performed an in vitro FIV enhancing/inhibitory analysis with all MAP peptides and immunogens. […]. Since MAP2 consisted of peptides FRT3-3 and FRT3-4 with a natural overlap (FIG. 34), such overlap may have blocked the enhancing activity of peptide FRT3-3 while allowing the inhibitory activity of peptide FRT3-4. […] Moreover, none of the MAP vaccinated cats had early detection or enhancement in viral load compared to the control cats. Perhaps, the strong immunity generated by the MAP2 has blocked the enhancing activity of the MAP1 when boosted together (Group 1, Table 3). To test this possibility, in vitro study is currently undergoing to evaluate whether MAP2 can block FIV enhancing activity of MAP1. Furthermore, more cats will be vaccinated with MAP 1b and MAP2 to determine the levels of cytotoxins generated to peptides Fp14-1, FRT3-3 and FRT3-4. Since these peptides have induced CTL-associated cytotoxin expression in T cells from HIV^+ subjects (FIGS. 31A-31B; FIG. 5 in (Sanou et al. 2013)), these EC peptides may also mediate their in vivo effects by inducing anti-FIV specific CTL activity.
However, only peptide Fp4-3 correlated with the in vitro enhancement induced by MAP1. Since the in vitro E/I assay uses PBMC from naïve specific pathogen free (SPF) cats, it is unlikely that the in vitro stimulation of anti-FIV CTLs occurred in the culture and eliminated the infected cells. More likely, these enhancing or inhibitory peptides induced cytokines (enhancement: IFNγ, TNFα, GM-CSF; inhibition: IFNα, IL10), chemokines (inhibition: MIP1α, MIP1β, SDF-1, RANTES), or cellular restriction factors (inhibition: Trim5α, APOBEC3g) that either enhanced or inhibited FIV/HIV-1 infection. […] IFNγ is produced during inflammatory responses to HIV-1 infection (Ipp and Zemlin 2013). Thus, high levels of antiviral cellular immune responses are needed while minimizing both non-specific and viral-specific activation of CD4^+ T cells which can enhance viral replication (Lane 2010). Removal of the enhancing epitopes on FIV and HIV-1 immunogens will be critical to produce an effective HIV-1 vaccine. To accomplish this goal, we will design a vaccine based on antiviral epitopes directed at inducing viral-specific CD4^+ CTLs, CD8^+ CTLs and polyfunctional T cells, and identifying viral enhancing epitopes to remove from vaccine candidates.

| Substance | cytotoxin expression / CTL-associated activity in CD8+ T cells (in words) [1] | cytotoxin expression in CD4+ T cells (in words) [2] | Cytotoxins [3] | T-cell proliferation in HIV− subjects (in words) [4] | also measured |
| --- | --- | --- | --- | --- | --- |
| ARMQCRAWY [Fp9-3d] | more cytotoxins | very little cytotoxin expression | Moderate Cytotoxins (only CD8) | not | – |
| DQEQNTAEVKLYLK [MAP1b, palmitated multiple antigenic peptide with FIV p24-peptide Fp14-1 alone] | – | – | – | – | effect on in vitro FIV infection [5]: no significant in vitro effect |
| FAPARMQCRAWYLEA [Fp9-3] | more cytotoxins; also recorded: highest frequency of responders | very little cytotoxin expression | High Cytotoxins (The cytotoxin result is considered high when four or five subjects express one or more cytotoxins in the CD8^+ T cells) | proliferated | HIV+ subjects whose CD8+ T cells responded with one or more cytotoxins [1]: up to four |
| KKKSGKWRLLIDFRVLNKL [MAP2] | – | – | – | – | effect on in vitro FIV infection [5]: significantly inhibited; also recorded: inhibition |
| RAEQASQEVKNWMTE [Hp15-1] | robust cytotoxin levels and responder frequencies | – | High Cytotoxins (The cytotoxin result is considered high when four or five subjects express one or more cytotoxins in the CD8^+ T cells) | not | CD8^+ T-cell cytotoxins (8C) [1]: +; HIV+ subjects whose CD8+ T cells responded with one or more cytotoxins [1]: five; CD4^+ T-cell cytotoxins (4C) [2]: + |
| RMQCRAWYL [Fp9-3c] | – | very little cytotoxin expression | Extremely Low Cytotoxins | not | – |
| VKNWMTETL [Hp15-2/3a] | – | – | – | did not stimulate | cytotoxin and CD107a expression in CD4+ and CD8+ T cells (in words) [3]: high cytotoxin and CD107a expression; also recorded: induced expression in both |
| VKNWMTETLLVQNAN [Hp15-3] | – | – | – | inducers | CD8^+ T-cell cytotoxins (8C) [1]: +; CD4^+ T-cell cytotoxins (4C) [2]: +; cytotoxin and CD107a expression in CD4+ and CD8+ T cells (in words) [3]: high levels and frequency of cytotoxin responses |
| concanavalin A [ConA, reference compound] | – | – | – | – | average RT titer ([5]; FIV-enhancing mitogen control, 1:10000 dilution): 54,634 cpm/mL |
